Measurements taken from US7244712B2, “Aminoglycoside antibiotics and methods of using same” (priority 2004, dated 2007).

Target: 80S ribosome
Assay: Fluorescence anisotropy binding to 80S ribosomes
Parameters: species or system yeast (S. cerevisiae)
Conditions: competition with CRP, yeast ribosomes; read-out: Dissociation constant (KD) with 80S ribosome
Experimental: After establishing the lack of stereospecificity in the binding of aminoglycosides to the A-site RNA constructs (FIG. 9A-C) where the binding affinity, KD, is about 0.1 μM to about 100 μM, the stereospecificity of aminoglycoside binding to intact ribosomes was determined. Both yeast and E. coli ribosomes were prepared and aminoglycoside binding was measured using fluorescence anisotropy methods. For example, fluorescence anisotropy methods recited in Wang, Y., and Rando, R. R. Chem. Biol. (1995) 2, 281-290; and Wang, Y., Hamasaki, K., and Rando, R. R. Biochemistry (1997) 36,768-779. CRP was used as the binding probe. […] Binding data reported herein for aminoglycoside compounds with eukaryotic yeast ribosomes are similar to binding data for said aminoglycoside compounds with ribosoimes in bacteria and with eukaryotic A-site rRNA constructs.
5-Carboxytetramethylrhodamine-labeled paromomycin (CRP) and tobramycin (CRT) concentrations were determined spectroscopically at 550 nm using a molar extinction coefficient of 6.00×10 4 M −1 cm −1. Fluorescence anisotropy measurements were performed on a Perkin-Elmer LS-50B luminescence spectrometer equipped with a thermostat accurate to ±0.1° C. as indicated previously (Wang, Y., Hamasaki, K., & Rando, R. R. (1997) Biochemistry 36, 768-779). The tracer solution was excited at 550 nm and monitored at 580 nm. The integration time was 5 s. For every point, 6 measurements were taken, and their average values were used for calculation. Measurements were carried out in a buffer solution containing 150 mM NaCl, 5 mM KCl, 1 mM CaCl2, 1 mM MgCl2, and 20 mM HEPES (pH 7.5). Prior to measurements, RNA constructs were renatured by incubating in binding buffer {150 mM NaCl, 5 mM KCl, 1 mM CaCl2, 1 mM MgCl2, and 20 mM HEPES (pH 7.5)} for 3 minutes at 90° C. followed by slow cooling to 25° C.
Equation 1 was used for the determination of the dissociation constant (Kd) for the interactions between RNA or ribosome and CRP. A=A0+DA{(RNA)0+(CRP)0+Kd−({(RNA)0+(CRP)0+Kd}^2−4(RNA)0(CRP)0)½}/2 where A and A0 are the fluorescence anisotropy of CRP in the presence and absence of RNA, respectively, and DA is the difference between the fluorescence anisotropy of CRP in the presence of an extrapolated infinite concentration of RNA minus the fluorescence anisotropy in the absence of RNA. (RNA)0 and (CRP)0 are the initial concentrations of RNA and CRP, respectively.
Equation 2 is used for the calculation of the KD values in the competition binding assay. (aminoglycoside)0={KD(A−−A)/Kd(A−A0)+1}{(RNA)0−Kd(A−A0)/(A−−A)−(CRP)0(A−A0)/(A−−A)} where KD is the dissociation constant between the RNA and the aminoglycosides; (aminoglycoside)0 is the initial concentration of the aminoglycosides; AL is anisotropy of completely bound tracer. Both Kd and KD were determined by non-linear curve fitting using the equations described above, and are presented as mean values of three independent measurements.
The purification of yeast 80S ribosomes from S. cerevisiae strain YSB 758 was carried out according to the published procedure (Verschoor, A., Warner, J. R., Srivastava, S., Grassucci, R. A., & Frank, J. (1997) Nucl. Acid Res. 26, 655-661). S. cerevisiea YSB 758 were grown for 12 hrs at 30° C. in 2L of YPD medium, containing: 20 g bacto peptone, 20 g glucose, 10 g yeast extract and 0.15 g tryptophan per 1 L, pH 7.0. The cells were lysed by 5-10 cycles of 1 min vigorous shaking with glass beads with a vortex, followed by cooling on ice. Clarified cell extract (about 9 mL total, used in 6 portions in 1.5 mL aliqouts) was carefully loaded on top of 2 mL of a cushion, composed of 10% sucrose and 5% ammonium sulfate dissolved in buffer YR1 (20 mM HEPES pH=7.4, 16 mM magnesium chloride, 100 mM potassium chloride, 5 mM DTT, and 0.5 mM EDTA). The ribosomes were collected by centrifugation in Beckman TL100.3 rotor at 75000 rpm for 3 h. The supernatants were carefully discarded and ribosomes were collected in buffer YR1. […]

NCC1OC(OC2C(N)CC(N)C(O)C2O)C(N)C(O)C1O [L-Neamine]
Kd: 6.06 ± 0.63 µM
